Consider 13 compounds from US5001137A, “Pyridine compounds and pharmaceutical use thereof” (Yoshitomi Pharmaceutical Industries, Ltd., priority 1988, dated 1991).

In this test the target is T1, prolylendopeptidase (Rattus norvegicus, UniProt O70196).
T1 construct: using rat cerebral soluble fractions as the crude enzyme; from tissue; host or cells: rat cerebrum, soluble fraction (crude enzyme)
Description: Measurement of prolylendopeptidase-inhibitory activity (rat cerebral soluble fractions as crude enzyme; succinyl-glycyl-prolylmethylcoumarinamide substrate, fluorescence). Format: biochemical. To be noted: rat cerebral soluble fraction, pH 7.0, 30° C., 15 minutes, 0.25% dimethylsulfoxide. As for the experimental part:
The prolylendopeptidase-inhibitory activity was estimated, using rat cerebral soluble fractions as the crude enzyme, in accordance with the methods by Yoshimoto et al (Biochem. Biophys. Acta., vol. 569, p 184 (1979)) and Kato et al. (J. Neurochem., vol. 35, p 527 (1980)). That is, a mixture containing 0.1 ml of 0.25 mM succinyl-glycyl-prolylmethylcoumarinamide, 1.15 ml of 0.1M Na/K phosphate buffer solution (pH 7.0), 0.1 ml of the crude enzyme and 0.1 ml of a solution of the compound of the present invention (at the final concentration of dimethylsulfoxide of 0.25%) was incubated at 30° C. for 15 minutes. Thereafter 1.5 ml of 0.1M acetate buffer solution (pH 4.2) was added to terminate the reaction. The fluorescence intensity (a) of the liberated methyl coumarinamide was measured by a fluorophotometer (Ex. 370 nm, Em. 440 nm). At the same time, the fluorescence intensity (b) of the control comprising a dimethylsulfoxide solution alone (at the final concentration of 0.25%) instead of the compound of the present invention was measured, and the prolylendopeptidase-inhibitory rate was calculated in accordance with the following formula and the concentration at which 50% of inhibition (IC50) can be attained was estimated.
Inhibition (%)={(b-a)/b)}×100

T1 sequence (O70196 whole entry): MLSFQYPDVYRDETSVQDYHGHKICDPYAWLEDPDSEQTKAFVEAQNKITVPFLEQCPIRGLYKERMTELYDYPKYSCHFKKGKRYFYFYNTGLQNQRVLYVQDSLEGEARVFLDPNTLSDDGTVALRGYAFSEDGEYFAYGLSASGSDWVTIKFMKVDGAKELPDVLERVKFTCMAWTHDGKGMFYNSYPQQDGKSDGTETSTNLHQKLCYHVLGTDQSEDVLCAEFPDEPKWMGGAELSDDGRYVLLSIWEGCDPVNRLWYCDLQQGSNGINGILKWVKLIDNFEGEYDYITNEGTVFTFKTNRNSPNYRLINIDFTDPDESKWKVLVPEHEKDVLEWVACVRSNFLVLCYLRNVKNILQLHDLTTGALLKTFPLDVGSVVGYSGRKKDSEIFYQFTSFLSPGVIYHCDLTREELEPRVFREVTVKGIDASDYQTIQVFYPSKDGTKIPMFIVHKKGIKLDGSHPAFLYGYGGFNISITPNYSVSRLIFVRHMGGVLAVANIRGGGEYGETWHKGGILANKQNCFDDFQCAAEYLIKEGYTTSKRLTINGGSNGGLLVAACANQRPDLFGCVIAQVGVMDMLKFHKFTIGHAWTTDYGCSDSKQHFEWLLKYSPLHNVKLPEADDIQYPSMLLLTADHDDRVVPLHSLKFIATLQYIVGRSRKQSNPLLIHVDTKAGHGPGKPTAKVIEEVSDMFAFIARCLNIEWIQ

A word on the IC50: it is the concentration that inhibits the measured activity by half. A higher IC50 goes with weaker potency in that assay. The compound `CN(C)CCCCCCSCCSc1ncccc1C(=O)c1cccs1` [Example 19, 2-[2-(6-Dimethylaminohexylthio)ethylthio]-3-(2-thenoyl)pyridine] showed an IC50 of 0.0045 µM.

`Cc1ccc(C(=O)c2cccs2)c(SCCCCCCN(C)C)n1` [Example 18, 2-(6-Dimethylaminohexylthio)-6-methyl-3-(2-thenoyl)pyridine] gave an IC50 of 0.0095 µM.

Compound `CN(CCCCCCOc1ncccc1C(=O)c1cccs1)Cc1ccccc1` [Example 6, 2-[6-(N-benzyl-N-methylamino)hexyloxy]-3-(2-thenoyl)pyridine] displayed an IC50 of 0.078 µM.

Take `CN(C)CCCOc1ncccc1C(=O)c1ccc(Cl)cc1` [Known Compound, 3-(4-chlorobenzoyl)-2-(3-dimethylaminepropoxy)pyridine, reference compound]: the IC50 is 1800 µM.

Take `CN(C)CCc1ccc(Oc2ncccc2C(=O)c2cccs2)cc1` [Example 1, 2-[4-(2-dimethylaminoethyl)phenoxy]-3-(2-thenoyl)pyridine]: half-maximal inhibition (IC50) required 0.014 µM.

Compound `CN(C)CCCCCCOc1ncccc1C(=O)c1cccs1` [Example 13, 2-(6-dimethylaminohexyloxy)-3-(2-thenoyl)pyridine] gave an IC50 of 0.055 µM.

In the case of `CN(C)CCCCCCOc1ccc(Oc2ncccc2C(=O)c2cccs2)cc1` [Example 2, 2-[4-(6-dimethylaminohexyloxy)phenoxy]-3-(2-thenoyl)pyridine], the IC50 is 0.03 µM.

For the compound `CC(C)c1ccc(C(=O)c2cccs2)c(SCCCCCCN(C)C)n1` [Example 21, 2-(6-Dimethylaminohexylthio)-6-isopropyl-3-(2-thenoyl)pyridine], the half-maximal inhibitory concentration (IC50) amounted to 0.0055 µM.

As to `CN(C)CCCOc1ccc(Oc2ncccc2C(=O)c2cccs2)cc1` [Example 4, 2-[4-(3-dimethylaminopropoxy)phenoxy]-3-(2-thenoyl)pyridine], half-maximal inhibition (IC50) was put at 0.06 µM.

Turning to `CN(C)CCCCCCSc1ncccc1C(=O)c1cccs1` [Example 5, 2-(6-dimethylaminohexylthio)-3-(2-thenoyl)pyridine], the IC50 worked out at 0.0095 µM.

`CCN(CC)CCCCCCSc1nc(C(C)C)ccc1C(=O)c1cccs1` [Example 22, 2-(6-Diethylaminohexylthio)-6-isopropyl-3-(2-thenoyl)pyridine] gave an IC50 of 0.011 µM.

For `CC(CSCCCN(C)C)Sc1ncccc1C(=O)c1cccs1` (stereo not shown) [Example 20, 2-[2 (3-Dimethylaminopropylthio)-1-methylethylthio]-3-(2-thenoyl)pyridine], half-maximal inhibition (IC50) required 0.0045 µM.

Turning to `CC(CSCCCCCCN(C)C)Sc1ncccc1C(=O)c1cccs1` (stereo not shown) [Example 17, 2-[2-(6-Dimethylaminohexylthio)-1-methylethylthio]-3-(2-thenoyl)pyridine], the IC50 came to 0.0045 µM.
